# In patent US20140275281A1, “Geranylgeranyl acetone and derivatives thereof for intranasal administration” (COYOTE PHARMACEUTICALS, INC., priority 2013, published 2014):
# Assay: pharmacological activity of GGA isomers (test not described)
# Settings: at low concentrations; statement in words only, no data given
structure (smiles),measurement,value
"CC(=O)CC/C=C(\C)CC/C=C(\C)CC/C=C(\C)CCC=C(C)C (single isomer, unassigned) [trans-isomer of GGA, trans-GGA]",pharmacological activity,pharmacologically active
"CC(=O)CC/C=C(/C)CC/C=C(\C)CC/C=C(\C)CCC=C(C)C (single isomer, unassigned) [cis-isomer of GGA, 5Z, 9E, 13E geranylgeranyl acetone]",pharmacological activity,at best of minimal activity
